Several values for one entry are separate records, joined by “and”; a condition that tells them apart may be missing. Identical values can stand only once.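 Each compound was tested at five concentrations against cells in 96-well plates for 48 hours. The concentration for 50% growth inhibition is given as GI50. TGI is the concentration that stops growth completely.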
What was measured:
Assay in all cases: DTP human tumour cell line panel, 48 h
MALME-3M melanoma = system: MALME-3M melanoma
HCC-2998 colon = system: HCC-2998 colon
HT29 colon = system: HT29 colon
HOP-92 NSCLC = system: HOP-92 NSCLC
U251 CNS = system: U251 CNS
HS 578T breast = system: HS 578T breast
NCI-H226 lung = system: NCI-H226 lung
NCI-H23 lung = system: NCI-H23 lung
LOX IMVI melanoma = system: LOX IMVI melanoma
M14 melanoma = system: M14 melanoma

COc1cc(-c2nn(-c3cccc(NC(=O)CCN4CCN(c5ccccc5)CC4)c3)cc2-c2ccncc2)ccc1Cl
GI50 (MALME-3M melanoma): 2.73 µM | TGI (MALME-3M melanoma): 14.3 µM | GI50 (HCC-2998 colon): 3.56 µM | TGI (HCC-2998 colon): > 100 µM | GI50 (HT29 colon): 2.66 µM | TGI (HT29 colon): > 100 µM | GI50 (HOP-92 NSCLC): 2.92 µM | TGI (HOP-92 NSCLC): 19.5 µM | GI50 (U251 CNS): 3.13 µM | TGI (U251 CNS): > 100 µM | GI50 (HS 578T breast): 4.61 µM | TGI (HS 578T breast): > 100 µM | GI50 (NCI-H226 lung): 4.13 µM | TGI (NCI-H226 lung): > 100 µM | GI50 (NCI-H23 lung): 3.09 µM | TGI (NCI-H23 lung): > 100 µM | GI50 (LOX IMVI melanoma): 2.02 µM | TGI (LOX IMVI melanoma): 5.47 µM | GI50 (M14 melanoma): 2.31 µM | TGI (M14 melanoma): 7.01 µM

CCOC(=O)[C@@H]1CSC(CC)=C(C(=O)O)N1
GI50 (MALME-3M melanoma): > 100 µM | TGI (MALME-3M melanoma): > 100 µM | GI50 (HCC-2998 colon): > 100 µM | TGI (HCC-2998 colon): > 100 µM | GI50 (HT29 colon): > 100 µM | TGI (HT29 colon): > 100 µM | GI50 (HOP-92 NSCLC): > 100 µM | TGI (HOP-92 NSCLC): > 100 µM | GI50 (U251 CNS): > 100 µM | TGI (U251 CNS): > 100 µM | GI50 (HS 578T breast): > 100 µM | TGI (HS 578T breast): > 100 µM | GI50 (NCI-H226 lung): > 100 µM | TGI (NCI-H226 lung): > 100 µM | GI50 (NCI-H23 lung): > 100 µM | TGI (NCI-H23 lung): > 100 µM | GI50 (LOX IMVI melanoma): > 100 µM | TGI (LOX IMVI melanoma): > 100 µM | GI50 (M14 melanoma): > 100 µM | TGI (M14 melanoma): > 100 µM

COc1cc(-c2nn(-c3cccc(NC(=O)CCNc4ccc(N5CCOCC5)cc4)c3)cc2-c2ccncc2)ccc1Cl
GI50 (MALME-3M melanoma): 2.31 µM | TGI (MALME-3M melanoma): 6.93 µM | GI50 (HCC-2998 colon): 4.77 µM | TGI (HCC-2998 colon): > 100 µM | GI50 (HT29 colon): 2.84 µM | TGI (HT29 colon): 33.4 µM | GI50 (HOP-92 NSCLC): 2.37 µM | TGI (HOP-92 NSCLC): 8.01 µM | GI50 (U251 CNS): 2.52 µM | TGI (U251 CNS): 63 µM | GI50 (HS 578T breast): 3.27 µM | TGI (HS 578T breast): > 100 µM | GI50 (NCI-H226 lung): 2.89 µM | TGI (NCI-H226 lung): 27.8 µM | GI50 (NCI-H23 lung): 2.68 µM | TGI (NCI-H23 lung): 20.6 µM | GI50 (LOX IMVI melanoma): 2.6 µM | TGI (LOX IMVI melanoma): 13 µM | GI50 (M14 melanoma): 2.58 µM | TGI (M14 melanoma): 10.5 µM

Cc1nc2ccccc2c(=O)n1/N=C(\N=Nc1cc(Cl)ccc1Cl)c1ccccc1
TGI (MALME-3M melanoma): > 100 µM | TGI (HCC-2998 colon): > 100 µM | TGI (HT29 colon): > 88.7 µM | TGI (HOP-92 NSCLC): > 100 µM | TGI (U251 CNS): > 75.2 µM | TGI (HS 578T breast): > 100 µM | TGI (NCI-H226 lung): > 100 µM | TGI (NCI-H23 lung): > 100 µM | TGI (LOX IMVI melanoma): > 100 µM | TGI (M14 melanoma): > 100 µM

CCOC(=O)c1c(NC(=O)c2ccc(Cl)cc2)sc2c(CN(C)C)c(O)ccc12
GI50 (MALME-3M melanoma): 1.85 µM | TGI (MALME-3M melanoma): 3.86 µM | GI50 (HCC-2998 colon): 1.83 µM | TGI (HCC-2998 colon): 3.84 µM | GI50 (HT29 colon): 2.48 µM | TGI (HT29 colon): 7.13 µM | GI50 (HOP-92 NSCLC): 1.78 µM | TGI (HOP-92 NSCLC): 6.07 µM | GI50 (U251 CNS): 4.85 µM | TGI (U251 CNS): 23.5 µM | GI50 (HS 578T breast): 4.06 µM | TGI (HS 578T breast): 26.5 µM | GI50 (NCI-H226 lung): 18.3 µM | TGI (NCI-H226 lung): > 100 µM | GI50 (NCI-H23 lung): 14.6 µM | TGI (NCI-H23 lung): 47.6 µM | GI50 (LOX IMVI melanoma): 4.73 µM | TGI (LOX IMVI melanoma): 18.5 µM | GI50 (M14 melanoma): 2.24 µM | TGI (M14 melanoma): 5.87 µM

OCC(O)C(O)C(O)C(O)c1nnc2c(-c3ccccc3)nc3ccccc3n12 (stereo unspecified)
GI50 (MALME-3M melanoma): 38.7 µM | TGI (MALME-3M melanoma): > 100 µM | GI50 (HCC-2998 colon): 62.4 µM | TGI (HCC-2998 colon): > 100 µM | GI50 (HT29 colon): 86.3 µM | TGI (HT29 colon): > 100 µM | GI50 (HOP-92 NSCLC): > 100 µM | TGI (HOP-92 NSCLC): > 100 µM | GI50 (U251 CNS): > 100 µM | TGI (U251 CNS): > 100 µM | GI50 (HS 578T breast): 57.9 µM | TGI (HS 578T breast): > 100 µM | GI50 (NCI-H226 lung): > 100 µM | TGI (NCI-H226 lung): > 100 µM | GI50 (NCI-H23 lung): > 100 µM | TGI (NCI-H23 lung): > 100 µM | GI50 (LOX IMVI melanoma): 51.5 µM | TGI (LOX IMVI melanoma): > 100 µM | GI50 (M14 melanoma): > 100 µM | TGI (M14 melanoma): > 100 µM

CC(O)[C@H](NC(=O)N[C@@H](CC(N)=O)c1nc(N2CCNCC2)no1)C(=O)O (stereo partly specified)
GI50 (MALME-3M melanoma): > 100 µM | TGI (MALME-3M melanoma): > 100 µM | GI50 (HCC-2998 colon): > 100 µM | TGI (HCC-2998 colon): > 100 µM | GI50 (HT29 colon): > 100 µM | TGI (HT29 colon): > 100 µM | GI50 (HOP-92 NSCLC): > 100 µM | TGI (HOP-92 NSCLC): > 100 µM | GI50 (U251 CNS): > 100 µM | TGI (U251 CNS): > 100 µM | GI50 (HS 578T breast): > 100 µM | TGI (HS 578T breast): > 100 µM | GI50 (NCI-H226 lung): > 100 µM | TGI (NCI-H226 lung): > 100 µM | GI50 (NCI-H23 lung): > 100 µM | TGI (NCI-H23 lung): > 100 µM | GI50 (LOX IMVI melanoma): > 100 µM | TGI (LOX IMVI melanoma): > 100 µM | GI50 (M14 melanoma): > 100 µM | TGI (M14 melanoma): > 100 µM

C=CC(=O)Nc1cc2c(Nc3ccc(F)c(Cl)c3)ncnc2cc1C#CC(C)(C)N1CCN(C)CC1
GI50 (MALME-3M melanoma): 1.49 µM | TGI (MALME-3M melanoma): 5.05 µM | GI50 (HCC-2998 colon): 1.83 µM | TGI (HCC-2998 colon): 4.25 µM | GI50 (HT29 colon): 1.56 µM | TGI (HT29 colon): 4.09 µM | GI50 (HOP-92 NSCLC): 0.29 µM | TGI (HOP-92 NSCLC): 1.78 µM | GI50 (U251 CNS): 2.66 µM | TGI (U251 CNS): 5.48 µM | GI50 (HS 578T breast): 2.28 µM | TGI (HS 578T breast): 8.47 µM | GI50 (NCI-H226 lung): 4.06 µM | TGI (NCI-H226 lung): 6.04 µM | GI50 (NCI-H23 lung): 1.72 µM | TGI (NCI-H23 lung): 3.78 µM | GI50 (LOX IMVI melanoma): 1.27 µM | TGI (LOX IMVI melanoma): 2.65 µM | GI50 (M14 melanoma): 2.56 µM | TGI (M14 melanoma): 5.71 µM

CC(=O)OCC1OC(n2c3c(cc(C#N)c2=S)CCCC3)C(OC(C)=O)C(OC(C)=O)C1OC(C)=O (stereo unspecified)
TGI (MALME-3M melanoma): > 100 µM | GI50 (HCC-2998 colon): 41.3 µM and > 100 µM | TGI (HCC-2998 colon): > 100 µM | GI50 (HT29 colon): 26.7 µM and > 100 µM | TGI (HT29 colon): 83.9 µM and > 100 µM | GI50 (HOP-92 NSCLC): > 100 µM and 32.4 µM | TGI (HOP-92 NSCLC): > 100 µM | GI50 (U251 CNS): > 100 µM and 21.9 µM | TGI (U251 CNS): > 100 µM and 53 µM | GI50 (HS 578T breast): > 100 µM and 25.5 µM | TGI (HS 578T breast): > 100 µM | TGI (NCI-H226 lung): > 100 µM | TGI (NCI-H23 lung): > 100 µM | GI50 (LOX IMVI melanoma): 20.7 µM and > 100 µM | TGI (LOX IMVI melanoma): 57.3 µM and > 100 µM | TGI (M14 melanoma): > 100 µM

C[As](C)SC1OCC(O)C(O)C1O (stereo unspecified)
GI50 (MALME-3M melanoma): 0.069 µM | TGI (MALME-3M melanoma): 0.366 µM | GI50 (HCC-2998 colon): 0.224 µM | TGI (HCC-2998 colon): 0.466 µM | GI50 (HT29 colon): 0.26 µM | TGI (HT29 colon): > 100 µM | GI50 (HOP-92 NSCLC): 0.283 µM | TGI (HOP-92 NSCLC): 2.07 µM | GI50 (U251 CNS): 0.46 µM | TGI (U251 CNS): 1.71 µM | GI50 (HS 578T breast): 0.276 µM | TGI (HS 578T breast): 0.718 µM | GI50 (NCI-H226 lung): 0.68 µM | TGI (NCI-H226 lung): 2.19 µM | GI50 (NCI-H23 lung): 0.281 µM | TGI (NCI-H23 lung): 1.76 µM | GI50 (LOX IMVI melanoma): 0.199 µM | TGI (LOX IMVI melanoma): 0.566 µM | GI50 (M14 melanoma): 0.128 µM | TGI (M14 melanoma): 0.925 µM

CC1(C)C2CCC13C(=O)C1OC3(C2)C2C(=O)c3c(ccc4c3ccc3ccccc34)C(=O)C12 (stereo unspecified)
GI50 (MALME-3M melanoma): 25.2 µM | TGI (MALME-3M melanoma): > 89.2 µM | GI50 (HCC-2998 colon): > 100 µM | TGI (HCC-2998 colon): > 100 µM | GI50 (HT29 colon): > 64.6 µM | TGI (HT29 colon): > 100 µM | GI50 (HOP-92 NSCLC): > 100 µM | TGI (HOP-92 NSCLC): > 100 µM | GI50 (U251 CNS): > 64.8 µM | TGI (U251 CNS): > 100 µM | GI50 (HS 578T breast): > 56.1 µM | TGI (HS 578T breast): > 100 µM | GI50 (NCI-H226 lung): > 100 µM | TGI (NCI-H226 lung): > 100 µM | GI50 (NCI-H23 lung): > 48.4 µM | TGI (NCI-H23 lung): > 81.5 µM | GI50 (LOX IMVI melanoma): 50.9 µM | TGI (LOX IMVI melanoma): > 100 µM | GI50 (M14 melanoma): > 100 µM | TGI (M14 melanoma): > 100 µM

From PubChem BioAssay (NCI)
